The source of these data is patent US20040132642A1, “Methods of inhibiting metastasis or growth of a tumor cell” (Government of the U.S.A., represented by the Secretary, …, priority 2002, published 2004).

Test [1] concerns CXCR4-B16 cells. Put plainly: adhesion of CXCR4-B16 cells to resting DMEC in parallel plate flow chamber. The format is cell-based, murine. The conditions noted are these: DMEC exposed to 100 ng/ml chemokine for 15 min; 1.5 dynes/cm^2. Here is the method:
Prior to interaction with tumor cells, resting confluent DMEC or LMEC were exposed to 100 ng/ml of recombinant CXCL12 or CCL21 for 15 min at 20° C. as described (Cinamon et al., Nat. Immunol. 2: 515-22 (2001)). After unbound chemokine was washed away, calcein-AM-labeled (Molecular Probes, Eugene, Oreg.) CXCR4- or pLNCX2-B16 cells (2.5×10^5/ml in B16 medium) were injected at 1.5 dynes/cm^2 into a parallel plate flow chamber (Glycotech, Gaithersburg, Md.) containing confluent DMEC or LMEC. In some cases, tumor cells were treated with pertussis toxin (PTX, Calbiochem, San Diego, Calif.) at 100 ng/ml for 2 hours at 37° C. to block Gi-protein-coupled signaling. After two min, flow was stopped, which enabled B16 cells to interact with MEC in the absence of shear stress. After 5 min, shear was re-established at 1.5 dynes/cm^2 for up to 2 min in order to detach unbound cells; adherent cells were digitally photographed in 5-6 random fields (each field=1.18 mm^2) with excitation at 488 nm and emission at 513 nm using sufficient exposure time (˜1 s) to allow distinction between non-moving and moving cells (which appeared as dim streaks) (Fitzhugh et al. (2000), supra). Cells were then counted with the software program IPlab (Scanalytics, Fairfax, Va.). […]

Test [2] relates to CXCR4-B16 cells. Put plainly: arrest of CXCR4-B16 cells on VCAM-1/Ig-coated plates under flow. It is filed as cell-based, murine. The conditions noted are these: CXCR4-B16 on plates co-coated with VCAM-1/Ig and 1 μg/ml chemokine; 1.5 dynes/cm^2. As to the method:
Cell suspension plates (35 mm, Model # 430588, Corning Inc., NY) were coated with human VCAM-1/IgG chimera (1 μg/ml) overnight at 4° C. in Tris-buffered saline (Maki et al., Immunol. 169:2346-2353 (2002)). Plates were then briefly rinsed with PBS, co-coated with 1 μg/ml of CXCL12, CCL19, or no chemokine in PBS for 2 hr at 4° C., and blocked with 1% BSA/PBS for 1 hr at 4° C. Calcein-acetomethyl (AM)-labeled (Molecular Probes, Eugene, Oreg.) CXCR4-B16 or pLNCX2-B16 cells (2.5×10^5 cells/ml in cDMEM) were injected at 1.5 dynes/cm^2 into a parallel plate flow chamber (Glycotech, Gaithersburg, Md.) that had been placed over the adhesion molecule- and/or chemokine-coated suspension plate.
For dynamic assays on recombinant molecule-coated plates as well as on LMEC, tumor cells were introduced into the chamber under a constant shear stress of 1.5 dynes/cm^2 without allowing cells to settle at any time during the assay. Ten min after flow was initiated, arrested cells were digitally photographed (without flow being decreased) in 4-6 random fields (each field=1.18 mm^2) with excitation at 488 nm and emission at 513 nm using sufficient exposure time (˜1 s) to allow distinction between moving cells, which appeared as dim streaks, and stationary cells. Cells were then enumerated with the software program IPlab (Scanalytics, Fairfax, Va.). […]

As to “CCL19: an unrelated chemokine used as control”, the “adherent B16-CXCR4 cells on DMEC (Table 6)” value in the test with CXCR4-B16 cells [1] worked out at 6.8. The substance also had a Mean adherent cells/field in the test on CXCR4-B16 cells [2] of 17.2 cells/field.
